From patent publication US10392368B2, “Pyrazolo and triazolo bicyclic compounds as JAK kinase inhibitors” (THERAVANCE BIOPHARMA R&D IP, LLC, priority 2017, dated 2019)

Columns and labels:
JAK1 = target: T1, JAK1 (Homo sapiens, UniProt P23458); experiment: Biochemical JAK1 kinase assay (LanthaScreen); conditions: for Ki: read-out: JAK 1 (pKi) (converted)
T1 construct: GST; purchased Life Technologies
In short: (§1)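 Recombinant GST-tagged JAK enzymes with GFP-STAT1 peptide substrate in 50 mM HEPES pH 7.5, 10 mM MgCl2, 1 mM EGTA, 0.01% Brij-35; compounds pre-incubated 1 h, then ATP added, 1 h reaction at ambient temperature. TR-FRET (Tb-anti-pSTAT1 pTyr701, 520/495 nm) after EDTA stop; IC50 by 4-parameter fit, converted to pKi via Cheng-Prusoff.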

JAK2 = target: T2, JAK2 (Homo sapiens, UniProt O60674); experiment: Biochemical JAK2 kinase assay (LanthaScreen); conditions: for Ki: read-out: JAK 2 (pKi) (converted)
T2 construct: GST; purchased Life Technologies
T2 sequence (O60674 whole entry): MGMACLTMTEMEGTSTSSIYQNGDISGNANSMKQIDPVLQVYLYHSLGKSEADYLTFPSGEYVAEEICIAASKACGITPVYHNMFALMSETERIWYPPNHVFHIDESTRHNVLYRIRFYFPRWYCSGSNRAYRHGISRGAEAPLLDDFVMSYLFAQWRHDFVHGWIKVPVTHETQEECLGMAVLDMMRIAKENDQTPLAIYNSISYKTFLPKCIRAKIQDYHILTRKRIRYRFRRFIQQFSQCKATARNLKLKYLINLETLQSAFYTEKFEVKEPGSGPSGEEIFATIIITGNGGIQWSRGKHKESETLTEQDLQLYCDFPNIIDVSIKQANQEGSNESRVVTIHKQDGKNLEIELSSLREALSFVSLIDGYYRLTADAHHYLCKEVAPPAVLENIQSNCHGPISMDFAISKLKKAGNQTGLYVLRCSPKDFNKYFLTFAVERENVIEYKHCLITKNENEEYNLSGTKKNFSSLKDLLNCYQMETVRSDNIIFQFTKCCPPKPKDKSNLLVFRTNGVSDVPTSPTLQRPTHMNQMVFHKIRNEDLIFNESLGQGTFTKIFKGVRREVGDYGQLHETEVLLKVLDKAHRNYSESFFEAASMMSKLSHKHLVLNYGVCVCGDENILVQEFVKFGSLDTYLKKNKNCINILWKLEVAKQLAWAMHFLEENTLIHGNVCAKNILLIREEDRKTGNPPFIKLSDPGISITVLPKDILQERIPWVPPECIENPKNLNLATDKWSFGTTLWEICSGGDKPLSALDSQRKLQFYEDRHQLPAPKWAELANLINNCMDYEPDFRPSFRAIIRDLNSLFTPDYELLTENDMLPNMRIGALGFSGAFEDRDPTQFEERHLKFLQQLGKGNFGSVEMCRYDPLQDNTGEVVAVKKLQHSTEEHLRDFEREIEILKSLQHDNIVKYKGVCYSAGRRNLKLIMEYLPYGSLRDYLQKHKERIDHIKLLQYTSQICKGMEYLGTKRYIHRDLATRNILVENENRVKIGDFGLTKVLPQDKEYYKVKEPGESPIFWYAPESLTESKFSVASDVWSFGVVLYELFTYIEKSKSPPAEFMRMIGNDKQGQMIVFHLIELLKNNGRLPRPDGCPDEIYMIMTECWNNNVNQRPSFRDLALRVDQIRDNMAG
In short: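 GST-tagged recombinant JAK2 pre-incubated 1 h at ambient temperature with compound and GFP-STAT1 peptide in HEPES pH 7.5/MgCl2 buffer, then ATP added for a 1 h reaction with 1% DMSO. TR-FRET read after EDTA and Tb-anti-pSTAT1 (pTyr701) addition; IC50 from 4-parameter fit, converted to pKi by Cheng-Prusoff.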

Tyk2 = target: T3, Tyk2 (Homo sapiens, UniProt P29597); experiment: Biochemical Tyk2 kinase assay (LanthaScreen); conditions: for Ki: read-out: Tyk 2 (pKi) (converted)
T3 construct: GST; purchased Life Technologies
T3 sequence (P29597 whole entry): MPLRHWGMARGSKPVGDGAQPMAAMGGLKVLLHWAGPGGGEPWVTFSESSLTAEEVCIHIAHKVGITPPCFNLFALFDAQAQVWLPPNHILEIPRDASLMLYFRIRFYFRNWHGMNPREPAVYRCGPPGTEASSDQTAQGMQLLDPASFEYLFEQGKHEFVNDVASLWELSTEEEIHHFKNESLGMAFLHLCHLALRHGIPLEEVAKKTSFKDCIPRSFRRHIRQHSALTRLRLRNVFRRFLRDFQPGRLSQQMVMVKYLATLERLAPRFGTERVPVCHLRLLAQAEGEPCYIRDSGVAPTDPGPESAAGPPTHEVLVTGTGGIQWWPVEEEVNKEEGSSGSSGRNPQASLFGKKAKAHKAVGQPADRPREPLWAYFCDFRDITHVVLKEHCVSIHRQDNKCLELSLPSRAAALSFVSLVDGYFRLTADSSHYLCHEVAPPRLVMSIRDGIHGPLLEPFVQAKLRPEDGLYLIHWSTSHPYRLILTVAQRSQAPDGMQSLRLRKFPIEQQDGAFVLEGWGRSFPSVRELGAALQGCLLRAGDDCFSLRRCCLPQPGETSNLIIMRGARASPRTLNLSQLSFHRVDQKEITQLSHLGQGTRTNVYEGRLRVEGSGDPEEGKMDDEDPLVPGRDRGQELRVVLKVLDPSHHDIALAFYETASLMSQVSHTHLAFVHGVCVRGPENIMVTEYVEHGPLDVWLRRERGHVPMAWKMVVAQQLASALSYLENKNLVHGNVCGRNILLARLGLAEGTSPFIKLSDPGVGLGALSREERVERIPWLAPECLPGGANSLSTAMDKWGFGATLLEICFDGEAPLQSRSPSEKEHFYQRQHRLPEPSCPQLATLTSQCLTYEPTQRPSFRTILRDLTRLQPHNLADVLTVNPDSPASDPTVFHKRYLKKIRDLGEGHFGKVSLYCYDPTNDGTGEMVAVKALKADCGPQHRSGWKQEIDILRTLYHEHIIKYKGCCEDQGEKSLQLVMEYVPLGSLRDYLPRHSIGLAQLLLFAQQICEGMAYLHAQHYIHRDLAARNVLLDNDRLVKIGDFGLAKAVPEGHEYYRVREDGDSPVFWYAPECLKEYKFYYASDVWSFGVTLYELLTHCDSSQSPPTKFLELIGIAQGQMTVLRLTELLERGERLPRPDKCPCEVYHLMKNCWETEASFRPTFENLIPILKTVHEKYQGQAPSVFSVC
In short: as §1

[1] = tested on: IL-2 stimulated pSTAT5 in Tall-1 T cells; experiment: Cellular JAK3 potency assay: inhibition of IL-2 stimulated pSTAT5 in Tall-1 T cells; type: cell-based, human; conditions: for IC50: Homo sapiens, TALL-1, IL-2 stimulated pSTAT5, Tall-1 T cells, read-out: Tall-1 (pIC50) (converted); for Tall-1 (pIC50): IL-2 stimulated pSTAT5, Tall-1 T cells
In short: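 In human Tall-1 T cells, IL-2 (300 ng/ml final, 30 min) drives STAT5 phosphorylation after a 1 h compound pretreatment. Lysates are assayed for pSTAT5 by AlphaLisa, and IC50 derived from signal versus concentration is expressed as pIC50.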

JAK3 = target: T4, JAK3 (Homo sapiens, UniProt P52333); experiment: Biochemical JAK3 kinase assay (LanthaScreen); set-up: GST; purchased Life Technologies; conditions: for Ki: read-out: JAK 3 (pKi) (converted); for JAK3 (pKi)-JAK1 (pKi): selectivity JAK3 over JAK1, difference of pKi
T4 sequence (P52333 1-1124): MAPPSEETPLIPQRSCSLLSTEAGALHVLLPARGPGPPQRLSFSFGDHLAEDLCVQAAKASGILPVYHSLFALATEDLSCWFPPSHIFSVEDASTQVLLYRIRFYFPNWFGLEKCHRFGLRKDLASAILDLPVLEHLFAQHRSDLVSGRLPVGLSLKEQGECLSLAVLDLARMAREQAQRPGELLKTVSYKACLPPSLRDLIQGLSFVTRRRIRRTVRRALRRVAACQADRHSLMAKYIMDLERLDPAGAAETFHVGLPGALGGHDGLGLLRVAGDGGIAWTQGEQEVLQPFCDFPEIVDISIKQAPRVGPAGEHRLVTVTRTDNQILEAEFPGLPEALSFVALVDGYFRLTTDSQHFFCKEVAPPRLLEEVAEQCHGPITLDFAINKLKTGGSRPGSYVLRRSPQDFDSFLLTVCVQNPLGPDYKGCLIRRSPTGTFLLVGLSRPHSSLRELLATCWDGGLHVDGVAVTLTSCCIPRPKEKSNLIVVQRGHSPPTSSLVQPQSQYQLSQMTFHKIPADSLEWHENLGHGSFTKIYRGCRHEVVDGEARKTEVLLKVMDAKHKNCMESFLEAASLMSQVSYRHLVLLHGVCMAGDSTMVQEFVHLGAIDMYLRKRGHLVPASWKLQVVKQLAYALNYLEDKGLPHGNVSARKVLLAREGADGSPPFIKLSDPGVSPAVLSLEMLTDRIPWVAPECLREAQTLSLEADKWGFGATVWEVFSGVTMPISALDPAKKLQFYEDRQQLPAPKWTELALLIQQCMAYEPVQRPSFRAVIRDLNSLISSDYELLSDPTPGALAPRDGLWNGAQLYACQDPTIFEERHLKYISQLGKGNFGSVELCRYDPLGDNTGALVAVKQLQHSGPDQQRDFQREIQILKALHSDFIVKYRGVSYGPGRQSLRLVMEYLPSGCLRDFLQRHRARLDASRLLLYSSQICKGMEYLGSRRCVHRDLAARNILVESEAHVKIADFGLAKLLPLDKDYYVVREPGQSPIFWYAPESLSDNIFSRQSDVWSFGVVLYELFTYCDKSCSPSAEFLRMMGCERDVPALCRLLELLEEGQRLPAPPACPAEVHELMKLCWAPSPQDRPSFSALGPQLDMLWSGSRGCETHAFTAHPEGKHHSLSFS
In short: as §1

T1 sequence (P23458 whole entry): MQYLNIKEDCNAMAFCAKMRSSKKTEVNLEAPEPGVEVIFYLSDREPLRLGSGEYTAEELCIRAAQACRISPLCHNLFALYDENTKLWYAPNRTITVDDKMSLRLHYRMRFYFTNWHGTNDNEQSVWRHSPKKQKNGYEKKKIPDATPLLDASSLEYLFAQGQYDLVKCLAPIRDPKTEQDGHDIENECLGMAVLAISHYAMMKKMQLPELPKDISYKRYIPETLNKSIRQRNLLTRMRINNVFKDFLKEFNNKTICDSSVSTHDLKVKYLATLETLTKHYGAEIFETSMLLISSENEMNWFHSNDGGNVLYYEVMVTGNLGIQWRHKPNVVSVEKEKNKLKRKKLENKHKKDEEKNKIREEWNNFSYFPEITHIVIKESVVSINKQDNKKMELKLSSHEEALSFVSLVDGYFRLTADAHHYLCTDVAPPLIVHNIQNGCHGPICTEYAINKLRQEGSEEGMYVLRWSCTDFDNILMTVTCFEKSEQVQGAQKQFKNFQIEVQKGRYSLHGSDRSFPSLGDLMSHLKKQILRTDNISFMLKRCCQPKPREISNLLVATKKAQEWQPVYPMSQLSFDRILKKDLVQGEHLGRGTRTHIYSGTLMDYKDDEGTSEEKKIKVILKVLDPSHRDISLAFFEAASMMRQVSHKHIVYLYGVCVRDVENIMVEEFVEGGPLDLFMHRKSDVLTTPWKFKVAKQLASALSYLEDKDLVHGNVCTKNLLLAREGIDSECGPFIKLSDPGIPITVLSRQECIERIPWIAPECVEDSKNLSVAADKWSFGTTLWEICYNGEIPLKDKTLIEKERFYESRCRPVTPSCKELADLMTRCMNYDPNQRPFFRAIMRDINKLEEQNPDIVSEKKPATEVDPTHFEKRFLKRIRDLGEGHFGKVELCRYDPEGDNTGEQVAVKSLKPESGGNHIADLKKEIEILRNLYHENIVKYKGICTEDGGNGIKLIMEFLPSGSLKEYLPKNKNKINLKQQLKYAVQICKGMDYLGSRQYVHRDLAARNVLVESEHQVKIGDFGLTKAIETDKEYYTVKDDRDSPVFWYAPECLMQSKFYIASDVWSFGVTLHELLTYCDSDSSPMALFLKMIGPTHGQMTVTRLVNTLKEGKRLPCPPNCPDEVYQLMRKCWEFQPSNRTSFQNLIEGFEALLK

SMILES	Ki (JAK1)	Ki (JAK2)	Ki (Tyk2)	IC50 [1]	Ki (JAK3)	JAK3 (pKi)-JAK1 (pKi) (JAK3)	JAK 1 (pKi) (JAK1)	JAK 2 (pKi) (JAK2)	Tyk 2 (pKi) (Tyk2)	Tall-1 (pIC50) [1]	JAK 3 (pKi) (JAK3)
CN(C)C/C=C/C(=O)N1CC[C@H](Sc2cc(-c3ccc(O)cc3)cc3[nH]ncc23)C1 [Compound 12-1]	> 100 nM	10 to 100 nM	> 100 nM	31.6 to 200 nM	0.1 to 1 nM	A (a value of 3 or above)	–	–	–	–	–
C=CC(=O)N1CCC(Sc2cc(-c3ccc(O)cc3)cc3[nH]ncc23)CC1 [Compound 12-4]	> 100 nM	> 100 nM	> 100 nM	31.6 to 200 nM	0.1 to 1 nM	A (a value of 3 or above)	–	–	–	–	–
C=CC(=O)N1CC[C@H](Nc2cc(-c3ccc(O)cc3)cc3[nH]ncc23)[C@H](C)C1 [Compound 12-16]	10 to 100 nM	1 to 10 nM	> 100 nM	< 31.6 nM	0.1 to 1 nM	B (a value of 2.3 to 3)	–	–	–	–	–
C=CC(=O)N1CC[C@@H](Nc2cc(-c3ccc(O)cc3)cc3[nH]ncc23)[C@H](C)C1 [Compound 12-17]	10 to 100 nM	1 to 10 nM	> 100 nM	< 31.6 nM	< 0.1 nM	B (a value of 2.3 to 3)	–	–	–	–	–
C=CC(=O)N1CC[C@@H](COc2cc(-c3ccc(O)cc3)cc3[nH]ncc23)C1 [Compound 12-20]	–	–	–	–	–	A (a value of 3 or above)	E (a pKi value of 7 or below (Ki of 100 nM or above))	D (a pKi value between 7 and 8 (Ki between 100 nM and 10 nM))	E (a pKi value of 7 or below (Ki of 100 nM or above))	A (a pIC50 value≥7.5 (IC50≤32 nM))	B (a pKi value between 9 and 10 (Ki between 1 nM and 0.1 nM))
CN(C)C/C=C/C(=O)N1CCC(COc2cc(-c3ccc(O)cc3)cc3[nH]ncc23)CC1 [Compound 12-26]	> 100 nM	10 to 100 nM	> 100 nM	200 to 1000 nM	0.1 to 1 nM	B (a value of 2.3 to 3)	–	–	–	–	–
C=CC(=O)N1CCC(COc2cc(-c3ccc(O)cc3)cc3[nH]ncc23)CC1 [Compound 12-27]	> 100 nM	10 to 100 nM	> 100 nM	< 31.6 nM	< 0.1 nM	A (a value of 3 or above)	–	–	–	–	–
C[C@@H]1C[C@H](Oc2cc(-c3ccc(O)cc3)cc3[nH]ncc23)CCN1C(=O)/C=C/CN(C)C [Compound 12-28]	> 100 nM	1 to 10 nM	> 100 nM	31.6 to 200 nM	< 0.1 nM	A (a value of 3 or above)	–	–	–	–	–
C=CC(=O)N1CC[C@@H](Oc2cc(-c3ccc(O)cc3)cc3[nH]ncc23)C[C@H]1C [Compound 12-29]	> 100 nM	10 to 100 nM	> 100 nM	< 31.6 nM	0.1 to 1 nM	A (a value of 3 or above)	–	–	–	–	–
C=CC(=O)N1CC[C@@H](Oc2cc(-c3ccc(O)cc3)cc3[nH]ncc23)C[C@@H]1C [Compound 12-30]	> 100 nM	1 to 10 nM	> 100 nM	< 31.6 nM	< 0.1 nM	A (a value of 3 or above)	–	–	–	–	–
C=CC(=O)N1CC[C@H](Oc2cc(-c3ccc(O)cc3)cc3[nH]ncc23)C[C@@H]1C [Compound 12-31]	> 100 nM	1 to 10 nM	> 100 nM	31.6 to 200 nM	< 0.1 nM	A (a value of 3 or above)	–	–	–	–	–
C=CC(=O)N1CC[C@H](Oc2cc(-c3ccc(O)cc3)cc3[nH]ncc23)C[C@H]1C [Compound 12-32]	> 100 nM	10 to 100 nM	> 100 nM	< 31.6 nM	< 0.1 nM	A (a value of 3 or above)	–	–	–	–	–
C=CC(=O)N1C[C@@H](Oc2cc(-c3ccc(O)cc3)cc3[nH]ncc23)CC[C@@H]1C [Compound 12-33]	> 100 nM	> 100 nM	> 100 nM	31.6 to 200 nM	0.1 to 1 nM	A (a value of 3 or above)	–	–	–	–	–
C=CC(=O)N1CC(CSc2cc(-c3ccc(O)cc3)cc3[nH]ncc23)C1 [Compound 12-34]	> 100 nM	> 100 nM	> 100 nM	< 31.6 nM	0.1 to 1 nM	B (a value of 2.3 to 3)	–	–	–	–	–
C=CC(=O)N1CC(Sc2cc(-c3ccc(O)cc3)cc3[nH]ncc23)C1 [Compound 12-35]	> 100 nM	> 100 nM	> 100 nM	31.6 to 200 nM	0.1 to 1 nM	B (a value of 2.3 to 3)	–	–	–	–	–
CN(C)C/C=C/C(=O)N1CC(F)(C2(Oc3cc(-c4ccc(O)cc4)cc4[nH]ncc34)CC2)C1 [Compound 12-36]	10 to 100 nM	> 100 nM	> 100 nM	< 31.6 nM	< 0.1 nM	A (a value of 3 or above)	–	–	–	–	–
CN(C)C/C=C/C(=O)N1CC(OCc2cc(-c3ccc(O)cc3)cc3[nH]ncc23)C1 [Compound 12-38]	> 100 nM	> 100 nM	> 100 nM	31.6 to 200 nM	< 0.1 nM	A (a value of 3 or above)	–	–	–	–	–
C=CC(=O)N1CC(OCc2cc(-c3ccc(O)cc3)cc3[nH]ncc23)C1 [Compound 12-39]	> 100 nM	> 100 nM	> 100 nM	< 31.6 nM	0.1 to 1 nM	A (a value of 3 or above)	–	–	–	–	–
C=CC(=O)N1CCC(C#N)(C(=O)Nc2cc(-c3ccc(O)cc3)cc3[nH]ncc23)CC1 [Compound 12-41]	> 100 nM	> 100 nM	> 100 nM	< 31.6 nM	0.1 to 1 nM	A (a value of 3 or above)	–	–	–	–	–
C=CC(=O)N1CCSC(C(=O)Nc2cc(-c3ccc(O)cc3)cc3[nH]ncc23)C1 (stereo not drawn) [Compound 12-42]	> 100 nM	10 to 100 nM	> 100 nM	31.6 to 200 nM	0.1 to 1 nM	B (a value of 2.3 to 3)	–	–	–	–	–
C=CC(=O)N1CCSC(C(=O)Nc2cc(-c3ccc(O)cc3)cc3[nH]ncc23)C1 (stereo not drawn) [Compound 12-43]	–	–	–	–	< 0.1 nM	A (a value of 3 or above)	E (a pKi value of 7 or below (Ki of 100 nM or above))	D (a pKi value between 7 and 8 (Ki between 100 nM and 10 nM))	E (a pKi value of 7 or below (Ki of 100 nM or above))	A (a pIC50 value≥7.5 (IC50≤32 nM))	–
C=CC(=O)N1CCS[C@@H](C(=O)Nc2cc(-c3ccc(O)cc3)cc3[nH]ncc23)C1 [Compound 12-44]	> 100 nM	10 to 100 nM	> 100 nM	31.6 to 200 nM	< 0.1 nM	A (a value of 3 or above)	–	–	–	–	–
C=CC(=O)N1CCS(=O)(=O)C(C(=O)Nc2cc(-c3ccc(O)cc3)cc3[nH]ncc23)C1 (stereo not drawn) [Compound 12-45]	> 100 nM	> 100 nM	> 100 nM	200 to 1000 nM	< 0.1 nM	A (a value of 3 or above)	–	–	–	–	–
C=CC(=O)N1CC(C(=O)Nc2cc(-c3ccc(O)cc3)cc3[nH]ncc23)C1 [Compound 12-46]	> 100 nM	10 to 100 nM	> 100 nM	31.6 to 200 nM	< 0.1 nM	A (a value of 3 or above)	–	–	–	–	–
